Laboratory results: patent US11958868B2, “Methods of using metal complexes to promote wound healing” (University of Macau, priority 2022, dated 2024)
Read-outs that look alike come from different tables or passages of the source.

How the values were obtained:
VHL [1] = target: T1, VHL (Homo sapiens, UniProt P40337); assay: Cellular thermal shift assay (CETSA) in HEK293 cell lysates, VHL; type: binding; set-up: monitor the target engagement of 1a in HEK293 cell lysates; endogenous in cells; host or cells: HEK293 cell lysate; conditions: 3 μM, 30 min
T1 sequence (P40337 whole entry): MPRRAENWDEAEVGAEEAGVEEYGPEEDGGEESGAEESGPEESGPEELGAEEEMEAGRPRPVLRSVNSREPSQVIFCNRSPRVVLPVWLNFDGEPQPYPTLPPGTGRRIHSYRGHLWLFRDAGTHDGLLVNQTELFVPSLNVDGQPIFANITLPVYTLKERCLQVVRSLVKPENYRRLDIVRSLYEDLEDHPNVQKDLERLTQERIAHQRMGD
T1 sequence (Q15370 whole entry partner): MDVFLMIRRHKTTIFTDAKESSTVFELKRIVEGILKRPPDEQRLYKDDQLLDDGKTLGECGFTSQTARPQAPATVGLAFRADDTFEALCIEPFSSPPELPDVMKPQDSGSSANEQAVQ
T1 sequence (Q15369 whole entry partner): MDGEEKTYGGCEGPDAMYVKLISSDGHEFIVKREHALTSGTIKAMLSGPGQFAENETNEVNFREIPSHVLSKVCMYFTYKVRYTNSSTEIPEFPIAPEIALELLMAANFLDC
Description: (§1) HEK293 cells were treated with vehicle DMSO (1% for 2 h), 1a (0.3, 1, 3, 6 and 9 μM for 2 h), VH298 (100 μM for 2 h), MG132 (20 μM for 3 h), or FG-4592 (100 μM for 2 h) before lysis. Cell lysates were collected and incubated with VHL antibody overnight at 4° C. The proteins were immunoprecipitated using agarose beads. The levels of hydroxy-HIF-1α co-precipitated with VHL were detected using a hydroxy-HIF-1α antibody, and then visualized using ECL Western Blotting Detection Reagent (GE Healthcare). (B) Cellular thermal shift assays to monitor cellular target engagement of VHL and HIF-1α. HEK293 cell lysates were treated with 1a (3 μM) at room temperature for 30 min and then heated at different temperature ranging from 48° C. to 68° C. for 5 min. The protein samples were collected and detected by Western blotting using either VHL or PHD2 antibodies. (C) Fluorescence-based protein thermal shift assay of VBC in the presence or absence of VH298 (100 μM) and complex 1a (100 μM). […] Data are expressed as means±SD (n=3 independent experiments for figures a and b, samples for figures c and e), P values were calculated using a two-sided t-test. *P<0.05, **P<0.01 vs. DMSO group.
After incubating HEK293 cell lysates with complex 1a followed by heating to set temperatures, VHL and PHD2 levels in the soluble fraction were quantitated by Western blotting. […]

[2] = system: HIF-1α activation of the HRE-driven reporter; assay: Dual luciferase reporter assay (HRE-driven luciferase activity); type: cell-based, Human; conditions: HEK293 cells, 8 h
Description: A library of cyclometalated Ir(III)/Rh(III) metal complexes 1-14 (as racemates) with diverse structures were selected for initial screening, in order to identify favorable substructures for the design of the next round of complexes (FIG. 1a). In cells, HIF-1α moves into the nucleus and binds to the hypoxia-response element (HRE) in the promoters of transactivated genes. In this study, the dual luciferase reporter assay (DLR) was performed to monitor the variations of HRE-driven luciferase activity induced by the complexes (FIG. 1f). Human embryonic kidney HEK293 cells were treated with complexes (10 μM) for 8 h, and the HRE-driven luciferase activity of the cell lysates was determined. Complexes that inhibit the interaction between VHL and HIF-1α would be expected to increase the level of HRE-driven luciferase activity in the cell lysates.
HEK293 cells were seeded in six well plates 24 h before transfection. HRE-luciferase plasmid (4 μg) and pRL-TK plasmid (4 μg) and TurboFect reagent (6 μL) were mixed together in serum-free DMEM medium and the resulting solution was incubated for 20 min at room temperature. The mixture was the added dropwise to the HEK293 cells in the wells. The cells were incubated for 32 h at 37° C. in a CO2 incubator before use.
The inhibition of HIF-1α activity was assayed by a reporter assay using a dual luciferase reporter assay system (Promega, Madison, WI, USA). Transiently transfected cells were treated with complexes or P1 for 8 h before measurement. Luciferase activity was integrated over a 10 second period and measured using a spectrophotometer (Spectra-max M5, Molecular Devices, USA). The results were standardization with the activity of Renilla luciferase. All data are expressed as means±SD.

[3] = target: T2, His-tagged recombinant VBC protein complex (Homo sapiens, UniProt P40337); assay: Biolayer interferometry (BLI); type: binding; conditions: for Kd: 1:1 interaction, 0.78-12.5 μM
T2 construct: made in house
T2 sequence (P40337 whole entry): as the sequence (P40337 whole entry) above
T2 sequence (Q15370 whole entry partner): as the sequence (Q15370 whole entry partner) above
T2 sequence (Q15369 whole entry partner): as the sequence (Q15369 whole entry partner) above
Description: as §1, with “μM). (D) ITC titration of complex 1a (300 μM) into recombinant VHL protein (30 μM). ITC experiments were carried in a MicroCal PEAQ-ITC Isothermal Titration Calorimeter (Malvern Panalytical). […] (F) Biolayer interferometry (BLI) kinetic analysis of the interaction between complex 1a and VBC. VBC was surface-immobilized to Ni-NTA biosensors.” for “μM).”
After incubating HEK293 cell lysates with complex 1a followed by heating to set temperatures, VHL and PHD2 levels in the soluble fraction were quantitated by Western blotting.

[4] = system: full-thickness skin wounds in WT/NC mice; assay: Skin wound model in normal (WT/NC) mice; type: in vivo
From the text: (§2) The mice were maintained for 3 days. […] All experiments complied with all relevant ethical regulations.
Mice were anesthetized by inhalation of 3% isoflurane.

VHL [5] = target: T1, VHL; assay: Binding affinity to VHL compared with VH298; conditions: complex 1a vs VH298
[6] = Body weight, blood glucose and toxicity in treated mice; type: in vivo
From the text: as §2

COc1cc[n+]2c3c1ccc1c(OC)cc[n+](c13)[Ir-3]213([c]2ccccc2-c2cccc[n+]21)[c]1ccccc1-c1cccc[n+]13.F[P-](F)(F)(F)(F)F [1a]
Shift in the VHL melting curve (CETSA) (VHL [1]): about 6 °C | HRE-driven luciferase activity compared to positive control P1 (and parent complex 1) [2]: about twice as potent as both the parent complex 1 as well as the positive control compound P1 | HRE-driven luciferase activity, second round of screening ([2]; complexes 1a-1n, ranking and comparison in words): highest activation of HRE-drive luciferase activity | Dose-response of HRE-driven luciferase activity ([2]; indicated concentrations): dose-dependent activation of HRE-driven luciferase activity | koff (BLI) [3]: 0.0352 s⁻¹ | kon (BLI) [3]: 522 M⁻¹ s⁻¹ | Kd ([3]; read-out: Kd (BLI, kinetic fit)): 6.74 ± 0.19 µM | Kd ([3]; read-out: Kd (BLI, steady state fit)): 5.8 ± 0.64 µM | Rate of wound closure, NC mice, 4 days ([4]; NC, 1.25 mg/kg i.p., 4 days): ~65% | Rate of wound closure, WT mice, 4 days ([4]; WT, 0.25 mg/mL topical, 4 days): about 64% | Wound closure, WT/NC mice, 8 days ([4]; WT/NC, 8 days): almost complete wound closure | Binding affinity, lower than that of VH298 (VHL [5]): around 100 fold | Blood glucose levels or body weight ([6]; HFD/STZ and STZ models, diabetic and NC mice, 1.25 mg/kg i.p.): neither diabetic nor normal control mice (NC) showed obvious changes in blood glucose levels or body weight | Body weight after local application ([6]; WT and db/db mice, 0.25 mg/mL topical, 8 days): did not affect body weight | Toxicity in animal models of diabetes ([6]; db/db, HFD/STZ and STZ): without significant toxicity
